According to BindingDB's records for doi:10.1021/jm00163a069 (Merck Sharp & Dohme Research Laboratories, 1990):
pIC50: −log10 of the molar value.

Assay: Inhibition of binding of [125I]CCK-8 to Cholecystokinin type B receptor in guinea pig brain tissues

O=C(NCC1CNc2ccccc2C(c2ccccc2F)=N1)C(O)c1ccccc1 (stereo unspecified)
pIC50: < 4.00
